Results on 24 compounds are retold here after patent US20230303570A1, “KINASE INHIBITORS AND USES THEREOF” (ABM Therapeutics Corporation, priority 2020, published 2023).

As a reminder, the IC50 is the point on the concentration scale where inhibition reaches its midpoint. Higher therefore signals a need for much substance.

Some results are limits rather than exact numbers.

HPK1 (MAP4K1), sequence (Q92918 whole entry, species assumed): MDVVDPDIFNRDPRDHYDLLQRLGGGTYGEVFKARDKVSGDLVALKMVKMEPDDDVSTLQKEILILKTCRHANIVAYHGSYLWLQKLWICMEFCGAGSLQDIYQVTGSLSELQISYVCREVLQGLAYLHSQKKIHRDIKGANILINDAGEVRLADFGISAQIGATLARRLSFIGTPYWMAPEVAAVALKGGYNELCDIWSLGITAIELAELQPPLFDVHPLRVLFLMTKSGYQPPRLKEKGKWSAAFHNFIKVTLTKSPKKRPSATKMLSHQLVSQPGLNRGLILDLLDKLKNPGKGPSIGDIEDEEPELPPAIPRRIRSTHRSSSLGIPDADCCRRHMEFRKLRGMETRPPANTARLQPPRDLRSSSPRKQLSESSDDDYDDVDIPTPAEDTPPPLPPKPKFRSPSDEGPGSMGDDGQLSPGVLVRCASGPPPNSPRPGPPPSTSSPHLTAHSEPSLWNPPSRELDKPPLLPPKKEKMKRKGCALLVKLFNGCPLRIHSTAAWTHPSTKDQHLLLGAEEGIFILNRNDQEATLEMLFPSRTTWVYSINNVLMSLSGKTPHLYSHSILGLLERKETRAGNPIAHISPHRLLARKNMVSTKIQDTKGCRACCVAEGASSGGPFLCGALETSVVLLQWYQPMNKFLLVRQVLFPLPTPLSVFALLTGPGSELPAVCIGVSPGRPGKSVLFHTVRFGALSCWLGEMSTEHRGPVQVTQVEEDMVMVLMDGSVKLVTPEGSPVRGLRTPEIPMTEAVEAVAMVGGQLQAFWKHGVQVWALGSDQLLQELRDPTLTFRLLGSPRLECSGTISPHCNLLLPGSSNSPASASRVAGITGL

The test deals with HPK1 (MAP4K1) (Homo sapiens, UniProt Q92918). As to the kind of experiment: HPK1 (MAP4K1) kinase Lantha screen assay. The test is classed as biochemical. The procedure:
The effect of the compounds on the activity of HPK1 (MAP4K1) kinase were assessed by Lantha screen assay. • 1. 1×kinase buffer was prepared (50 mM HEPES, pH 7.5, 10 mM MgCl2, 4 mM DT • 2. Compound and assay plates preparation: • 2-1) The compound was diluted to 100× of the final desired highest inhibitor concentration in reaction by 100% DMSO. For example, if a compound was tested at […], then a solution at 500 µM in DMSO was prepared in this step. • 2-2) For each tested compound, the compound was transferred in tubes to one well on a 96-well storage plate and serially diluted by transferring […] of 100% DMSO in the next well and so forth for a total of 6 concentrations. • 2-3) 100 μl of 100% DMSO were added to two empty wells to serve as no compound control and no enzyme control in the same 96-well plate. The resulting plate was labeled as the source plate. • 2-4) 40 μl of compound from source plate were transferred to a new 384-well Echo plate as the intermediate plate. 100 nl of each well from the 384-well Echo plate were transferred to a 384-well assay plate in duplicates. For example, A1 of the 384-well Echo plate was transferred to A1 and A2 of the 384-well plate. A2 of the 384-well Echo plate was transferred to A3 and A4 of the 384-well plate, and so on; • 3. Kinase reaction: a solution of MAP4K1 in 1× kinase buffer at 2-fold the final concentration of each reagent in the assay was prepared. 5 μl of kinase solution was added to each well of the assay plate, except for control wells without enzyme (add 5 μl of 1× kinase buffer instead). The plate was then shaken, then incubated at room temperature for 10 min. A substrate solution of Fluorescein-PKC and ATP in 1× kinase reaction buffer at 2-fold of the final concentration of each reagent desired in the assay was prepared. 5 μl of substrate solution was added to each well of the assay plate to start reaction. The plate was shaken, then covered, and incubated at room temperature for 90 minutes.
Kinase detection: detection solution of 2-fold of final concentration in Antibody Dilution Buffer was prepared. 10 μl of detection solution was added to each well of the assay plate to stop the reaction. The mixtures were mixed briefly with Centrifuge and incubated at room temperature 60 minutes before reading on a plate reader for fluorescence. Data was collected on Envision with excitation at 340 nm and emission at 520 nm and 495 nm.
Compound `Clc1ccccc1C1=Cc2cnc(Nc3ccc(N4CCOCC4)nc3)nc2N2CCN=C12` [Compound 100, 6-(2-chlorophenyl)-N-(6-morpholinopyridin-3-yl)-8,9-dihydroimidazo[1′,2′:1,6]pyrido[2,3-d]pyrimidin-2-amine] returned an IC50 of 100 to 10000 nM. Compound `Cc1ccc(Nc2ncc3c(n2)N2CCN=C2C(c2ccccc2Cl)=C3)cn1` [Compound 101, 6-(2-chlorophenyl)-N-(6-methylpyridin-3-yl)-8,9-dihydroimidazo[1′,2′:1,6]pyrido[2,3-d]pyrimidin-2-amine] showed a half-maximal inhibitory concentration (IC50) of 100 to 10000 nM. For `CNc1ncc2c(n1)N1CCCN=C1C(c1cc(NC(=O)c3cc(C(F)(F)F)ccn3)ccc1C)=C2` [Compound 105, N-(4-methyl-3-(2-(methylamino)-9,10-dihydro-8H-pyrido[1,6-a:2,3-d′]dipyrimidin-6-yl)phenyl)-4-(trifluoromethyl)picolinamide], the IC50 fell in the range of 100 to 10000 nM. The compound `COCCNc1ncc2c(n1)N1CCN=C1C(c1cc(NC(=O)c3cc(C(F)(F)F)ccn3)ccc1C)=C2` [Compound 112, N-(3-(2-((2-methoxyethyl)amino)-8,9-dihydroimidazo[1′,2′:1,6]pyrido[2,3-d]pyrimidin-6-yl)-4-methylphenyl)-4-(trifluoromethyl)picolinamide] had an IC50 of 100 to 10000 nM. The same measure for `Cc1ccc(NC(=O)c2cc(C(F)(F)F)ccn2)cc1C1=Cc2cnc(NCC(C)(C)O)nc2N2CCN=C12` [Compound 113, N-(3-(2-((2-hydroxy-2-methylpropyl)amino)-8,9-dihydroimidazo[1′,2′:1,6]pyrido[2,3-d]pyrimidin-6-yl)-4-methylphenyl)-4-(trifluoromethyl)picolinamide]: under 100 nM. The same measure for `Cc1ccc(NC(=O)c2cc(C(F)(F)F)ccn2)cc1C1=Cc2cnc(NC3COC3)nc2N2CCN=C12` [Compound 114, N-(4-methyl-3-(2-(oxetan-3-ylamino)-8,9-dihydroimidazo[1′,2′:1,6]pyrido[2,3-d]pyrimidin-6-yl)phenyl)-4-(trifluoromethyl)picolinamide]: under 100 nM. As to `Cc1ccc(NC(=O)c2cc(C(F)(F)F)ccn2)cc1C1=Cc2cnc(NC3CNC3)nc2N2CCN=C12` [Compound 116, N-(3-(2-(azetidin-3-ylamino)-8,9-dihydroimidazo[1′,2′:1,6]pyrido[2,3-d]pyrimidin-6-yl)-4-methylphenyl)-4-(trifluoromethyl)picolinamide], the IC50 was 100 to 10000 nM. The value for `Cc1ccc(NC(=O)c2cc(C(F)(F)F)ccn2)cc1C1=Cc2cnc(NS(C)(=O)=O)nc2N2CCN=C12` [Compound 117, N-(4-methyl-3-(2-(methylsulfonamido)-8,9-dihydroimidazo[1′,2′:1,6]pyrido[2,3-d]pyrimidin-6-yl)phenyl)-4-(trifluoromethyl)picolinamide] was over 10000 nM; that for `CC(=O)Nc1ncc2c(n1)N1CCN=C1C(c1cc(NC(=O)c3cc(C(F)(F)F)ccn3)ccc1C)=C2` [Compound 118, N-(3-(2-acetamido-8,9-dihydroimidazo[1′,2′:1,6]pyrido[2,3-d]pyrimidin-6-yl)-4-methylphenyl)-4-(trifluoromethyl)picolinamide] was 100 to 10000 nM; that for `CNc1nc(C)c2c(n1)N1CCN=C1C(c1cc(NC(=O)c3cc(C(F)(F)F)ccn3)ccc1Cl)=C2` [Compound 123, N-(4-chloro-3-(4-methyl-2-(methylamino)-8,9-dihydroimidazo[1′,2′:1,6]pyrido[2,3-d]pyrimidin-6-yl)phenyl)-4-(trifluoromethyl)picolinamide] was over 10000 nM.

On to `CNc1ncc2c(n1)N1CCN=C1C(c1cc(NC(=O)c3cc(C(F)(F)F)ccn3)ccc1C)=N2` [Compound 124, N-(4-methyl-3-(2-(methylamino)-8,9-dihydroimidazo[2,1-h]pteridin-6-yl)phenyl)-4-(trifluoromethyl)picolinamide], for which the half-maximal inhibitory concentration (IC50) fell in the range of 100 to 10000 nM.

`CNc1ncc2c(n1)N1C[C@H](C)N=C1C(c1cc(NC(=O)c3cc(C(F)(F)F)ccn3)ccc1C)=C2` [Compound 126, (S)—N-(4-methyl-3-(8-methyl-2-(methylamino)-8,9-dihydroimidazo[1′,2′:1,6]pyrido[2,3-d]pyrimidin-6-yl)phenyl)-4-(trifluoromethyl)picolinamide] registered a half-maximal inhibitory concentration (IC50) of 100 to 10000 nM.

On to `CNc1ncc2c(n1)N1C[C@@H](C)N=C1C(c1cc(NC(=O)c3cc(C(F)(F)F)ccn3)ccc1C)=C2` [Compound 127, (R)—N-(4-methyl-3-(8-methyl-2-(methylamino)-8,9-dihydroimidazo[1′,2′:1,6]pyrido[2,3-d]pyrimidin-6-yl)phenyl)-4-(trifluoromethyl)picolinamide], for which the concentration for half-maximal inhibition (IC50) was 100 to 10000 nM. The value for `CNc1ncc2c(n1)N1C(=NCC13CCCC3)C(c1cc(NC(=O)c3cc(C(F)(F)F)ccn3)ccc1C)=C2` [Compound 131, N-(4-methyl-3-(2′-(methylamino)-8′H-spiro[cyclopentane-1,9′-imidazo[1′,2′:1,6]pyrido[2,3-d]pyrimidin]-6′-yl)phenyl)-4-(trifluoromethyl)picolinamide] was under 100 nM.

In turn, `CNc1cc2c(cn1)C=C(c1cc(NC(=O)c3cc(C(F)(F)F)ccn3)ccc1C)C1=NCCN12` [Compound 132, N-(4-methyl-3-(8-(methylamino)-1,2-dihydroimidazo[1,2-a][1,6]naphthyridin-4-yl)phenyl)-4-(trifluoromethyl)picolinamide] returned an IC50 of 100 to 10000 nM.

The compound `CNc1ncc2c(n1)N1CCN=C1C(c1cc(NC(=O)c3cc(C(F)(F)F)ccn3)c(Cl)cc1C)=C2` [Compound 133, N-(2-chloro-4-methyl-5-(2-(methylamino)-8,9-dihydroimidazo[1′,2′:1,6]pyrido[2,3-d]pyrimidin-6-yl)phenyl)-4-(trifluoromethyl)picolinamide] yielded an IC50 of under 100 nM. `O=C(Nc1ccc(Cl)c(C2=Cc3cnc(NC4COC4)nc3N3CCN=C23)c1)c1cc(C(F)(F)F)ccn1` [Compound 137, N-(4-chloro-3-(2-(oxetan-3-ylamino)-8,9-dihydroimidazo[1′,2′:1,6]pyrido[2,3-d]pyrimidin-6-yl)phenyl)-4-(trifluoromethyl)picolinamide] yielded a half-inhibitory concentration (IC50) of under 100 nM. The same measure for `O=C(Nc1ccc(Cl)c(C2=Cc3cnc(NC4CCOCC4)nc3N3CCN=C23)c1)c1cc(C(F)(F)F)ccn1` [Compound 138, N-(4-chloro-3-(2-((tetrahydro-2H-pyran-4-yl)amino)-8,9-dihydroimidazo[1′,2′:1,6]pyrido[2,3-d]pyrimidin-6-yl)phenyl)-4-(trifluoromethyl)picolinamide]: under 100 nM; for `CNc1ncc2c(n1)N1CCN=C1C(c1cc(NC(=O)c3cc(C(F)(F)F)ccn3)c(F)cc1C)=C2` [Compound 139, N-(2-fluoro-4-methyl-5-(2-(methylamino)-8,9-dihydroimidazo[1′,2′:1,6]pyrido[2,3-d]pyrimidin-6-yl)phenyl)-4-(trifluoromethyl)picolinamide]: under 100 nM. The same measure for `CNc1ncc2c(n1)N1CCN=C1C(c1cc(NC(=O)c3ccnc(C(F)(F)F)c3)ccc1C)=C2` [Compound 145, N-(4-methyl-3-(2-(methylamino)-8,9-dihydroimidazo[1′,2′:1,6]pyrido[2,3-d]pyrimidin-6-yl)phenyl)-2-(trifluoromethyl)isonicotinamide]: 100 to 10000 nM; for `CNc1ncc2c(n1)N1CCN=C1C(c1cc(NC(=O)c3cncc(C(F)(F)F)n3)ccc1C)=C2` [Compound 146, N-(4-methyl-3-(2-(methylamino)-8,9-dihydroimidazo[1′,2′:1,6]pyrido[2,3-d]pyrimidin-6-yl)phenyl)-6-(trifluoromethyl)pyrazine-2-carboxamide]: over 10000 nM; for `CNc1ncc2c(n1)N1CCN=C1C(c1cc(NC(=O)c3ccnc(C(F)(F)F)n3)ccc1C)=C2` [Compound 147, N-(4-methyl-3-(2-(methylamino)-8,9-dihydroimidazo[1′,2′:1,6]pyrido[2,3-d]pyrimidin-6-yl)phenyl)-2-(trifluoromethyl)pyrimidine-4-carboxamide]: over 10000 nM. On to `CNc1ncc2c(n1)N1CCN=C1C(c1cc(NC(=O)c3nccc(C(F)(F)F)n3)ccc1C)=C2` [Compound 148, N-(4-methyl-3-(2-(methylamino)-8,9-dihydroimidazo[1′,2′:1,6]pyrido[2,3-d]pyrimidin-6-yl)phenyl)-4-(trifluoromethyl)pyrimidine-2-carboxamide], for which the IC50 fell in the range of 100 to 10000 nM. Take `CNc1ncc2c(n1)N1CCN=C1C(c1cc(NC(=O)c3cnnc(C(F)(F)F)c3)ccc1C)=C2` [Compound 150, N-(4-methyl-3-(2-(methylamino)-8,9-dihydroimidazo[1′,2′:1,6]pyrido[2,3-d]pyrimidin-6-yl)phenyl)-6-(trifluoromethyl)pyridazine-4-carboxamide]: the IC50 is over 10000 nM.
